# From patent publication US20240041042A1, “1-(PYRIDYL)-5-AZINYLPYRAZOLE DERIVATIVES, AND THEIR USE FOR CONTROL OF UNDESIRED PLANT GROWTH” (Bayer Aktiengesellschaft, priority 2020, published 2024)
# Like-named read-outs stand apart in the source and are kept apart here.
# Assays:
# Format in all cases: in vivo
# Viola tricolor (VIOTR) [1] = assay: Pre-emergence herbicidal action against VIOTR
# How it was run: (§1)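 Pre-emergence soil-surface spray of compound, formulated as wettable powder or emulsion concentrate, in aqueous suspension or emulsion with 0.5% additive (600 l/ha; rate 320 g/ha or less). Activity rated visually after roughly 3 weeks in the greenhouse as a percentage of untreated controls, 0% meaning no difference.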
# [2] = test system: Alopecurus myosuroides (ALOMY); assay: Post-emergence herbicidal action against ALOMY; settings: visual rating about 3 weeks after treatment vs untreated controls (100% = plants have died, 0% = like control plants)
# How it was run: (§2)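 Post-emergence greenhouse spray, one-leaf stage, 600 l/ha water plus 0.5% additive; WP or EC formulations; application rates 320 g/ha or lower. Visual % damage vs untreated controls at ~3 weeks.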
# Viola tricolor (VIOTR) [3] = assay: Post-emergence herbicidal action against VIOTR
# How it was run: as §2
# [4] = test system: Amaranthus retroflexus (AMARE); assay: Pre-emergence herbicidal action against AMARE; settings: visual scoring after about 3 weeks vs untreated controls
# How it was run: as §1
# Lolium rigidum (LOLRI) [5] = assay: Pre-emergence herbicidal action against LOLRI; settings: dosage 320 g/ha
# How it was run: as §1
# [6] = test system: Amaranthus retroflexus (AMARE); assay: Post-emergence herbicidal action against AMARE
# How it was run: as §2
# [7] = test system: Polygonum convolvulus (POLCO); assay: Post-emergence herbicidal action against POLCO
# How it was run: as §2
# [8] = test system: Pharbitis purpurea (PHBPU); assay: Post-emergence herbicidal action against PHBPU; settings: dosage 320 g/ha
# How it was run: as §2
# Avena fatua (AVEFA) [9] = assay: Pre-emergence herbicidal action against AVEFA; settings: 320 g/ha, visual scoring after about 3 weeks vs untreated controls
# How it was run: as §1
# Lolium rigidum (LOLRI) [10] = assay: Post-emergence herbicidal action against LOLRI
# How it was run: as §2
# [11] = test system: Echinochloa crus-galli (ECHCG); assay: Post-emergence herbicidal action against ECHCG
# How it was run: as §2
# [12] = test system: Pharbitis purpurea (PHBPU); assay: Pre-emergence herbicidal action against PHBPU; settings: dosage 320 g/ha
# How it was run: as §1
# Setaria viridis (SETVI) [13] = assay: Post-emergence herbicidal action against SETVI
# How it was run: as §2
# [14] = test system: Abutilon theophrasti (ABUTH); assay: Post-emergence herbicidal action against ABUTH; settings: visual rating about 3 weeks after treatment vs untreated controls (100% = plants have died, 0% = like control plants)
# How it was run: as §2
# [15] = test system: Matricaria inodora (MATIN); assay: Pre-emergence herbicidal action against MATIN; settings: dosage 320 g/ha
# How it was run: as §1
# [16] = test system: Polygonum convolvulus (POLCO); assay: Pre-emergence herbicidal action against POLCO; settings: dosage 320 g/ha
# How it was run: as §1
# [17] = test system: Verconica persica (VERPE); assay: Pre-emergence herbicidal action against VERPE; settings: dosage 320 g/ha
# How it was run: as §1
# Avena fatua (AVEFA) [18] = assay: Post-emergence herbicidal action against AVEFA; settings: visual rating about 3 weeks after treatment
# How it was run: as §2
# Setaria viridis (SETVI) [19] = assay: Pre-emergence herbicidal action against SETVI
# How it was run: as §1
# [20] = test system: Matricaria inodora (MATIN); assay: Post-emergence herbicidal action against MATIN
# How it was run: as §2
# [21] = test system: Alopecurus myosuroides (ALOMY); assay: Pre-emergence herbicidal action against ALOMY; settings: scored visually after about 3 weeks, 100% = plants have died
# How it was run: as §1
# [22] = test system: Echinochloa crus-galli (ECHCG); assay: Pre-emergence herbicidal action against ECHCG
# How it was run: as §1
# [23] = test system: Verconica persica (VERPE); assay: Post-emergence herbicidal action against VERPE
# How it was run: as §2
# [24] = test system: Digitaria sanguinalis (DIGSA); assay: Post-emergence herbicidal action against DIGSA; settings: visual rating about 3 weeks after treatment
# Protocol: Seeds of monocotyledonous and dicotyledonous weeds and crop plants are placed in sandy loam in plastic or organic planting pots, covered with soil and cultivated in a greenhouse under controlled growth conditions. 2 to 3 weeks after sowing, the test plants are treated at the one-leaf stage. The compounds of the invention, formulated in the form of wettable powders (WP) or as emulsion concentrates (EC), are then sprayed onto the green parts of the plants as aqueous suspension or emulsion with addition of 0.5% additive at a water application rate of 600 l/ha (converted). After the test plants have been kept in the greenhouse under optimum growth conditions for about 3 weeks, the activity of the preparations is rated visually in comparison to untreated controls. For example, 100% activity=the plants have died, 0% activity=like control plants.
# Tables B1 to B13 below show the effects of selected compounds of the general formula (I) according to Table 1 on various harmful plants and at an application rate corresponding to 320 g/ha or lower, which were obtained by the experimental procedure mentioned above. The appendices “a”, “b” and “c” give differentiation by dosage used with otherwise the same harmful plants tested.
# Zea mays (ZEAMX) = test system: Zea mays (ZEAMX)
# How it was run: (§3)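 Effects were read visually as % versus untreated controls (0% = no effect, 100% = death) about 3 weeks post-treatment. Application was a post-emergence spray at the one-leaf stage of WP/EC formulations with 0.5% additive at 600 l/ha. Different dosages are denoted a, b and c.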
# Oryza sativa (ORYSA) = settings: crop plant compatibility
# How it was run: as §3
smiles,measurement,setting,value
COC(=O)COc1nn(-c2ncccc2F)c(-c2ccc(F)nc2)c1C1CC1 [Example I-42],Pre-emergence action against VIOTR in %,"Viola tricolor (VIOTR) [1]; 320 g/ha, Viola tricolor",100%
same,Pre-emergence action against VIOTR in %,Viola tricolor (VIOTR) [1]; dosage 80 g/ha,100%
same,Post-emergence action against ALOMY in %,[2]; 80 g/ha,100%
same,Post-emergence action against ALOMY in %,[2]; 320 g/ha,100%
same,Post-emergence action against VIOTR in %,Viola tricolor (VIOTR) [3]; 80 g/ha,90%
same,Post-emergence action against VIOTR in %,Viola tricolor (VIOTR) [3]; 320 g/ha,90%
same,Pre-emergence action against AMARE in %,[4]; 80 g/ha,90%
same,Pre-emergence action against AMARE in %,[4]; 320 g/ha,100%
same,Pre-emergence action against LOLRI in %,Lolium rigidum (LOLRI) [5],100%
same,Post-emergence action against AMARE in %,"[6]; 80 g/ha, visual rating about 3 weeks after treatment vs untreated controls (100% = plants have died, 0% = like control plants)",90%
same,Post-emergence action against AMARE in %,"[6]; 320 g/ha, visual rating about 3 weeks after treatment",90%
same,Post-emergence action against POLCO in %,[7]; dosage 80 g/ha,80%
same,Post-emergence action against POLCO in %,[7]; dosage 320 g/ha,90%
same,Post-emergence action against PHBPU in %,[8],90%
same,Pre-emergence action against AVEFA in %,Avena fatua (AVEFA) [9],100%
same,Post-emergence action against LOLRI in %,Lolium rigidum (LOLRI) [10]; dosage 80 g/ha,100%
same,Post-emergence action against LOLRI in %,Lolium rigidum (LOLRI) [10]; dosage 320 g/ha,100%
same,Post-emergence action against ECHCG in %,[11]; dosage 80 g/ha,90%
same,Post-emergence action against ECHCG in %,[11]; dosage 320 g/ha,90%
same,Pre-emergence action against PHBPU in %,[12],90%
same,Post-emergence action against SETVI in %,Setaria viridis (SETVI) [13]; dosage 80 g/ha,90%
same,Post-emergence action against SETVI in %,Setaria viridis (SETVI) [13]; dosage 320 g/ha,90%
same,Post-emergence action against ABUTH in %,[14]; 80 g/ha,90%
same,Post-emergence action against ABUTH in %,[14]; 320 g/ha,90%
same,Pre-emergence action against MATIN in %,[15],100%
same,Pre-emergence action against POLCO in %,[16],90%
same,Pre-emergence action against VERPE in %,[17],100%
same,Post-emergence action against AVEFA in %,Avena fatua (AVEFA) [18]; 80 g/ha,100%
same,Post-emergence action against AVEFA in %,Avena fatua (AVEFA) [18]; 320 g/ha,100%
same,Pre-emergence action against SETVI in %,Setaria viridis (SETVI) [19]; dosage 80 g/ha,100%
same,Pre-emergence action against SETVI in %,Setaria viridis (SETVI) [19]; dosage 320 g/ha,100%
same,Post-emergence action against MATIN in %,[20]; dosage 80 g/ha,80%
same,Post-emergence action against MATIN in %,[20]; dosage 320 g/ha,90%
same,Pre-emergence action against ALOMY,[21]; 80 g/ha,100%
same,Pre-emergence action against ALOMY,[21]; 320 g/ha,100%
same,Pre-emergence action against ECHCG in %,[22]; dosage 80 g/ha,100%
same,Pre-emergence action against ECHCG in %,[22]; dosage 320 g/ha,100%
same,Post-emergence action against VERPE in %,"[23]; 320 g/ha, VERPE",90%
same,Post-emergence action against VERPE in %,[23]; dosage 80 g/ha,90%
COC(=O)CCOC(=O)[C@@H](C)Oc1nn(-c2ccccn2)c(-c2ccc(F)nc2)c1Br [Example I-290],Post-emergence action against ALOMY in %,[2]; 320 g/ha,90%
same,Post-emergence action against VIOTR in %,Viola tricolor (VIOTR) [3]; 320 g/ha,80%
same,Post-emergence action against POLCO in %,[7]; dosage 320 g/ha,80%
same,Post-emergence action against PHBPU in %,[8],90%
same,Post-emergence action against LOLRI in %,Lolium rigidum (LOLRI) [10]; dosage 320 g/ha,80%
same,Post-emergence action against ECHCG in %,[11]; dosage 80 g/ha,80%
same,Post-emergence action against ECHCG in %,[11]; dosage 320 g/ha,90%
same,Post-emergence action against SETVI in %,Setaria viridis (SETVI) [13]; dosage 80 g/ha,90%
same,Post-emergence action against SETVI in %,Setaria viridis (SETVI) [13]; dosage 320 g/ha,90%
same,Post-emergence action against VERPE in %,"[23]; 320 g/ha, VERPE",80%
same,Post-emergence action against VERPE in %,[23]; dosage 80 g/ha,80%
same,Post-emergence action against DIGSA in %,[24]; 80 g/ha,90%
same,Post-emergence action against DIGSA in %,[24]; 320 g/ha,90%
same,Post-emergence action against ZEAMX in % (crop plant compatibility),"Zea mays (ZEAMX); 20 g/ha, ZEAMX, effect in comparison to untreated controls",0%
same,Post-emergence action against ZEAMX in %,"Zea mays (ZEAMX); crop plant compatibility, 80 g/ha, effect vs untreated controls",10%
same,Post-emergence action against ORYSA in %,"Oryza sativa (ORYSA); 20 g/ha, effect vs untreated controls",0%
same,Post-emergence action against ORYSA in %,"Oryza sativa (ORYSA); 80 g/ha, effect in comparison to untreated controls",10%
